Measurements: patent US20230219898A1, “COMPOUNDS AND METHODS FOR BLOCKING APOPTOSIS AND INDUCING AUTOPHAGY” (President and Fellows of Harvard College, priority 2020, published 2023)

Experiments:
[1] = test system: TRADD-N mutants (Y16A, F18A, I72A, R119A, G121A); test: Thermal shift assay with His-TRADD-N mutants; type: binding, human
Method: To determine stability, purified proteins were made to a final concentration of […]. SYPRO Orange dye was added to the protein to make a final concentration of 2×. Compounds were added in the mix with a final concentration of 250 μM or as indicated and incubated at 4C for 1 h. The experiments were performed in 384-well plates specific for real-time PCR instrument with a total volume of 20 μl/well. The assay plate was covered with a sheet of optically clear adhesive to seal each well. The assay plate was centrifuged at 800×g for 2 min at 25C to collect solutions in the bottom of the well and remove bubbles. The assay plate was placed into the Applied Biosystems QuantStudio 6 Real-Time PCR System. The reaction was run from 25C, ramping up in increments of 0.05° C./s to a final temperature of 95C with fluorescence detection throughout the experiment to generate a dataset. Melting temperature of the protein (Tm) was determined by performing non-linear fitting of the dataset to a Boltzmann Sigmoidal curve in GraphPad Prism with the following equation: Y=Bottom+(Top-Bottom)/[1+exp(Tm-X/Slope)], where Y=fluorescence emission in arbitrary units; X=temperature; Bottom=baseline fluorescence at low temperature; Top=maximal fluorescence at top of the dataset; Slope=describes the steepness of the curve, with larger values denoting shallower curves.

TRADD-N and TRAF2-C = molecular target: T1, TRADD-N and TRAF2-C (Homo sapiens, UniProt Q15628); test: Cell-free FRET assay TRADD-N / TRAF2-C; type: biochemical; conditions: incubated 1 h
T1 construct: expression constructs encoding Flag-TRADD-N(1-179) and HA-TRADD-C(180-312); expressed in transfected cells; host or cells: HEK293T
T1 sequence (Q15628 1-179): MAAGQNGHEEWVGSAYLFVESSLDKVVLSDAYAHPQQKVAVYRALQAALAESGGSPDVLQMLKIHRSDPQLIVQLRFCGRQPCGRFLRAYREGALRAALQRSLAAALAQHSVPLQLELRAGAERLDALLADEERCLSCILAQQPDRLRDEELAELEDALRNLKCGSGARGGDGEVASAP
Method: When FRET occurs, the acceptor mVenus-TRADDN-Flag (mV-TRADDN) emission will increase and the donor emission will decrease. Apt-1 was added to the system with indicated concentration and incubated for 1 h, then subjected to FRET assay.
mVenus- and Flag-tagged TRADD-N(mVenus-TRADDN-Flag) and mCerulean- and Flag-tagged TRAF2C (Flag-TRAF2C-mCerulean) was expressed in HEK293T cells for 48 h. Then cells were lysed in NP-40 buffer followed by immunoprecipitation using anti-Flag affinity gel. The proteins were eluted by 5 mg/ml 3×Flag peptide and exchanged into assay buffer (120 mM NaCl, 20 mM NaH2PO4/Na2HPO4, pH 7.4) by dialysis for FRET assay. The proteins were added into Coming black 96-well microtiter plates in triplicates at a final concentration of 1 μM. Apt-1 was incubated with the proteins for 1 h before measurement. Measurements were performed on a fluorescent plate reader (Victor3, 1420 Multilabel counter, Perkin Elmer). The following filter set was used: mCerulean filter set (excitation: 430/15 nm, emission: 460/20 nm); mVenus filter set (excitation: 485/15, emission 535/15); FRET filter set (430/15 nm, emission 450-600 nm).

[2] = test system: brain slices from PS19 mice; test: Cultured organotypic brain slices from PS19 mice; type: cell-based; conditions: treatment for 3 h
Method: FIG. 14g contains epresentative images and quantification of cultured brain slices from PS19 mice (4 months old) stained with phospho-tau (red) and cell nuclei (DAPI/blue). Mean ±s.e.m. from biological replicates (n=5). Two-tailed t-test.
PS19 mice (4 months old) were anesthetized with isoflurane prior to decapitation. The brain was removed and immediately immersed in ice-cold cutting solution (2.5 mM KCl, 5 mM MgCl2, 11 mM D-Glucose, 238 mM Sucrose, 26 mM NaHCO3, 1 mM NaH2PO4, 1 mM CaCl2)). The cerebellum was trimmed off and the caudal end of the brain was glued onto the cutting table of the vibratome (LEICA VT1000 S, Germany). The brain was cut in coronal slices of […] with an amplitude of 1.5 mm, a frequency of 75 Hz and a velocity of 0.1 mm/s. The slices were collected and stored in ice-cold cutting solution before floating onto semi-porous membrane inserts (Millipore, Millicell-CMLow Height Culture Plate Inserts, Schwalbach, Germany). Slices were cultured at 37° C. and 5% CO2 in a culture medium consisting of 394 ml MEM, 10% normal horse serum, 5 mg/mL penicillin, 5 mg/mL streptomycin, 2.5 ml L-glutamine, 1 mM MgSO4, 11 mM D-Glucose, 238 mM Sucrose, 5 mM NaHCO3, 1 mM CaCl2), 26.6 mM HEPES, 0.024 ml 25% ascorbic acid and 0.5 mg Insulin. Medium was changed every other day. Slices are maintained for 14 days in vitro prior to treatment.

His-TRADD-N = molecular target: T2, His-TRADD-N (Homo sapiens, UniProt Q15628); test: Thermal shift assay with His-TRADD-N; type: binding
T2 construct: expression constructs encoding Flag-TRADD-N(1-179) and HA-TRADD-C(180-312); made in house; host or cells: E. coli BL21 (DE3), pET-28a
T2 sequence (Q15628 1-179): as above
Method: Recombinant WT and mutant His-TRADD-N(aal-179) protein fragment was expressed in BL21 (DE3) E. coli after induction with 0.5 mM IPTG overnight at 16C. ^15N-labeled TRADD-N domain protein was purified from E. co/i grown at 16C in minimal medium. Bacteria were harvested and disrupted by a high-pressure homogenizer and purified by Ni^2+ affinity resin (GE Healthcare). All proteins were further purified by size exclusion chromatograph on a Superdex 75 column (GE Healthcare) in a buffer containing 20 mM imidazole (pH6.6), 200 mM NaCl, 20 mM DTT and 0.05% NaN3. All NMR samples were in the same buffer at concentrations between 0.2-0.4 mM with 90% H2O/10% D2O. […]
To determine stability, purified proteins were made to a final concentration of 1 μg/l. […] The reaction was run from 25C, ramping up in increments of 0.05° C./s to a final temperature of 95C with fluorescence detection throughout the experiment to generate a dataset. Melting temperature of the protein (Tm) was determined by performing non-linear fitting of the dataset to a Boltzmann Sigmoidal curve in GraphPad Prism with the following equation: Y=Bottom+(Top-Bottom)/[1+exp(Tm-X/Slope)], where Y=fluorescence emission in arbitrary units; X=temperature; Bottom=baseline fluorescence at low temperature; Top=maximal fluorescence at top of the dataset; Slope=describes the steepness of the curve, with larger values denoting shallower curves.

`CN1CCN=C1SC(C(=O)NC1CCCCCC1)c1ccccc1` (stereo not shown) [Compound 30] was tested, and the “binding with recombinant TRADD-N mutants” value [1] was “reduced relative to WT”, the “binding of TRADD-N to TRAF2-C (FRET)” value (TRADD-N and TRAF2-C) was “dose-dependently reduced” and the “autophagy and accumulation of mutant tau in brain slices” value [2] was “induced autophagy and reduced the accumulation of mutant tau”. The “increase of Tm of His-TRADD-N” value (His-TRADD-N) was 3.7 °C.
